# Results as given in US12377173B2, “Compositions comprising hyperpolarized probes for H2O2 sensing and methods of using same” (Duke University, priority 2021, dated 2025).
# Experiments:
# [1] = In vivo reaction-based detection of H2O2 with hyperpolarized 15N-BBCP; settings: rat
# Protocol: Finally, the ability of ^15N-BBCP to image H2O2 in vivo using clinical 3 T MRI was assessed.
# Finally, the feasibility of ^15N-BBCP to detect H2O2 in vivo was investigated in a rat model at the clinical 3 T MRI. […] Despite the small chemical shift difference, the accumulation of ^15N-HBCP production was clearly observed in the later time points.
# [2] = UV/Vis kinetics measurement; settings: 25° C., PBS pH 7.4, 50 μM BBCP, 5 mM H2O2 (100 equiv)
# Protocol: The pseudo-first order rate constant was calculated by monitoring the BBCP consumption with UV/Vis spectroscopy over time in the presence of excess H2O2. A solution of BBCP (50 μM) oxidation was initiated by the addition of freshly prepared H2O2 (5 mM, 100 equiv) in PBS (pH 7.4) at 25° C. Reactions were monitored as Abs310 change and scanned every 30 s for 20 minutes. The apparent k1 value was determined by the initial rate of reaction (0-50 s) as (3.4±0.15)×10^−3 min^−1. The experiment was repeated in triplicate to give a k2 value of 12.6±0.52 M^−1 min^−1 (0.21±0.0087 M^−1 s^−1).
# [3] = ROS/RNS selectivity test, LC/MS; settings: 200 μM BBCP, 2 mM ONOO^−, PBS pH 7.4, LC/MS
# Protocol: (§1) Selectivity for the BBCP probe was measured by analytical high performance liquid chromatography (HPLC) using Agilent 1200 Series HPLC System equipped with a multi-wavelength detector and an Agilent Zorbax SB-C18 Column (3.5 μm particle size, 3.0×150 mm). Concentrations of 4-cyanopyridine was calculated using integrated peak intensities at 280 nm using a calibration curve. All reactions were tested with 200 μM BBCP and 2 mM ROS/RNS (10 equiv) in PBS (pH 7.4). At a given time point, the reaction was quenched with 10 μL 1 M ascorbic acid (10 mM) and analyzed by LCMS. The ROS and RNS were generated as follows:
# ONOO^−: To a solution of aqueous NaOH (0.5 M, 2.5 mL) and iPrOH (2.5 mL) was added H2O2 (30% in H2O, 0.12 mL, 1.2 mmol, 1.2 equiv), followed by isoamyl nitrite (0.135 mL, 1.0 mmol, […]). The reaction was stirred at room temperature for 20 mins and washed with CH2Cl2 (10 mL×2). […] The solution was then filtered and stored in −20° C. until use. The concentration of the stock solution was calculated to be 14.3 mM using absorbance at 302 nm (e=1670 M^−1).
# [4] = Stability in PBS and DMEM media (LCMS)
# HeLa cells = test: Cytotoxicity analysis using WST-8 assay (CCK-8); format: cell-based; settings: concentrations up to 10 mM, 6 h of treatment
# Protocol: WST cytotoxicity assay was performed using Cell Counting Kit-8 (CCK-8) according to the procedure as follows. HeLa cells were seeded in a 96-well plate at a concentration of 5000 cells/well in DMEM medium (high glucose) supplemented with 10% FBS and 1% sodium pyruvate. The cell cultures were incubated for 24 h in a humidified atmosphere of 5% CO2 at 37° C. After the incubation period, 10 μL of 5, 10, 50, 100 mM stock solutions of BBCP dissolved in PBS buffer (pH 7.4) were added to each well so the final concentration is 0.5, 1, 5, 10 mM, respectively. PBS and sodium dodecyl sulfate (SDS) (1 mM) were used as negative and positive controls, respectively. The treated 96-well plates were incubated for 6 and 24 h in a humidified atmosphere of 5% CO2 at 37° C. After appropriate incubation time, the CCK-8 solution (10 μL) was added to each well and further incubated for 2 h for color development. The absorbance at 450 nm from each well was measured by using a microplate reader (Synergy™ H1, BioTek). The background absorbance of BBCP corrected.
# [5] = ROS/RNS/reactive sulfur selectivity test, LC/MS; settings: 200 μM probe, 2 mM reactive species, PBS pH 7.4, LC/MS (FIG. 1B)
# Protocol: as §1, with “LCMS.” for “LCMS. The ROS and RNS were generated as follows:”
# [6] = ROS selectivity test, LC/MS conversion to 4-cyanopyridine; settings: 200 μM BBCP, 2 mM H2O2 (10 equiv), PBS pH 7.4, 5-30 min, room temperature
# Protocol: as §1
# H2O2: A 30% H2O2 in H2O solution was diluted to a 500 mM stock solution. 4 μL of 500 mM H2O2 (2 mM) was added to a 200 μM of BBCP in PBS.
# [7] = ROS selectivity test, LC/MS; settings: 200 μM BBCP, 2 mM OCl^−, PBS pH 7.4, LC/MS
# Protocol: as §1
# OCl^−: Commercial bleach (8.25% NaOCl) was diluted to 500 mM. 4 μL of 500 mM NaOCl (for a final concentration of 2 mM) was added to 200 μM of BBCP.
# [8] = injection of exogenous H2O2, 3 T 15N-MRS (Example 3)
substance,measurement,setting,value
1-(4-boronobenzyl)-4-(cyano)pyridin-1-ium [^15N-BBCP],15N-CP (fragmentation product) signal in vivo,[1]; [8],^15N-CP was not observed
same,15N-HBCP (oxidation product) signal in vivo,[1]; [8],^15N-HBCP peak was detectable
same,15N-CP (fragmentation product) signal in vivo,"[1]; intravenous bolus 40-mM after intraperitoneal H2O2, 3 T",^15N-CP was not observed
same,15N-HBCP (oxidation product) signal in vivo,"[1]; intravenous bolus 40-mM after intraperitoneal H2O2, slab with liver and kidneys, 3 T",both ^15N-BBCP and ^15N-HBCP peaks appeared
same,"apparent k1 (pseudo-first order rate constant), initial rate 0-50 s",[2],(3.4±0.15)×10^−3 min^−1
same,reactivity with peroxynitrite,[3],moderate reactivity
same,LCMS absorbance peak area of the probe in PBS,[4]; 0 hours,566.6
same,time stable in PBS and DMEM media,"[4]; 200 μM probe, pH 7.4, room temp, LCMS",over 26 h
same,LCMS absorbance peak area of the probe in PBS,[4]; 2 hours,565.6
same,LCMS absorbance peak area of the probe in PBS,[4]; 26 hours,564.9
same,stability in physiological buffer solution (in words),"[4]; PBS, pH 7.4, 200 μM, 0, 2 and 24 h (FIG. 4)",only showing hydrolysis of boronic ester to boronic acid
same,cell viability,HeLa cells,> 90%
same,reactivity toward hydrogensulfite,[5],showed reactivity
same,conversion to 4-cyanopyridine on reaction with H2O2,[6],significant conversion to 4-cyanopyridine
same,reactivity with hypochlorite,[7],moderate reactivity
